{
  "source": "paper PMC7377239",
  "about": "“Cardiovascular Effects of Polychlorinated Biphenyls and Their Major Metabolites” (Environmental Health Perspectives, 2020)",
  "key": {"[1]": {"tested_on": "iCell endothelial cells (human iPSC-derived ECs)", "assay": "Tube formation (tubulogenesis) assay in iCell endothelial cells, 18 h", "format": "cell-based", "settings": "Homo sapiens, Endothelial cell, iPSC-EC tube formation, 18 hr; for activity at 0.1 µM: 0.10 µM; for minimal effective concentration: top concentration 100.00 µM", "method_in_brief": "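Tube formation was measured by calcein AM imaging after overnight compound exposure (37°C, 0.5% DMSO vehicle) of human iPSC-derived ECs, 7,500/well, on reduced-growth-factor Geltrex in starvation medium. Vehicle-normalized data fitted to four-parameter logistic; POD set at one vehicle SD; without response, 100 μM taken as NOAEL.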"}, "HUVECs": {"tested_on": "HUVECs", "assay": "High-content imaging cytotoxicity in HUVECs, 24 h", "format": "cell-based, human", "settings": "Homo sapiens, HUVEC, 24 h, HUVECs; for viability at 0.01 µM / activity at 0.01 µM / viability at 0.1 µM / activity at 0.1 µM / viability at 1 µM / activity at 1 µM / viability at 10 µM / activity at 10 µM / viability at 100 µM / activity at 100 µM: 0.00 µM = 100.00; for viability at 0.1 µM / activity at 0.1 µM: 0.10 µM; for minimal effective concentration: top concentration 100.00 µM", "method_in_brief": "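Confluent HUVEC monolayers, passages 1–5, received test chemicals for 24 h. Cytotoxicity was scored from triple-stain high-content images, with PODs defined by a one-SD deviation from 0.5% DMSO vehicle controls.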"}, "[2]": {"settings": "0.00 µM control = 100.00, read-out: endo.mtl.18hr"}, "[3]": {"settings": "0.00 µM control = 100.00, read-out: endo.tlps.18hr"}, "[4]": {"settings": "0.00 µM control = 100.00, read-out: endo.tta.18hr"}, "[5]": {"settings": "0.00 µM control = 100.00, read-out: endo.ttl.18hr"}, "[6]": {"settings": "24 hr, read-out: huvec.cyto.24hr"}, "[7]": {"settings": "24 hr, read-out: huvec.mito.24hr"}, "[8]": {"settings": "24 hr, read-out: huvec.mitoint.24hr"}, "[9]": {"settings": "24 hr, read-out: huvec.nma.24hr"}, "[10]": {"settings": "24 hrs, read-out: huvec.tc.24hrs"}},
  "note": "Like-named read-outs stand apart in the source and are kept apart here.",
  "data": [
    {"smiles": "Clc1ccc(Cl)c(-c2cc(Cl)ccc2Cl)c1", "note": "[PCB52]", "values": [
      {"measurement": "activity at 0.01 µM", "setting": "[1]; [2]", "result": 109, "unit": "%"},
      {"measurement": "activity at 0.01 µM", "setting": "[1]; [3]", "result": 89.1, "unit": "%"},
      {"measurement": "activity at 0.01 µM", "setting": "[1]; [4]", "result": 152, "unit": "%"},
      {"measurement": "activity at 0.01 µM", "setting": "[1]; [5]", "result": 156, "unit": "%"},
      {"measurement": "activity at 0.1 µM", "setting": "[1]; [2]", "result": 111, "unit": "%"},
      {"measurement": "activity at 0.1 µM", "setting": "[1]; [3]", "result": 140, "unit": "%"},
      {"measurement": "activity at 0.1 µM", "setting": "[1]; [4]", "result": 108, "unit": "%"},
      {"measurement": "activity at 0.1 µM", "setting": "[1]; [5]", "result": 116, "unit": "%"},
      {"measurement": "activity at 1 µM", "setting": "[1]; [2]", "result": 107, "unit": "%"},
      {"measurement": "activity at 1 µM", "setting": "[1]; [3]", "result": 132, "unit": "%"},
      {"measurement": "activity at 1 µM", "setting": "[1]; [4]", "result": 125, "unit": "%"},
      {"measurement": "activity at 1 µM", "setting": "[1]; [5]", "result": 133, "unit": "%"},
      {"measurement": "activity at 10 µM", "setting": "[1]; [2]", "result": 110, "unit": "%"},
      {"measurement": "activity at 10 µM", "setting": "[1]; [3]", "result": 108, "unit": "%"},
      {"measurement": "activity at 10 µM", "setting": "[1]; [4]", "result": 119, "unit": "%"},
      {"measurement": "activity at 10 µM", "setting": "[1]; [5]", "result": 120, "unit": "%"},
      {"measurement": "activity at 100 µM", "setting": "[1]; [2]", "result": 79, "unit": "%"},
      {"measurement": "activity at 100 µM", "setting": "[1]; [3]", "result": 83.4, "unit": "%"},
      {"measurement": "activity at 100 µM", "setting": "[1]; [4]", "result": 89.5, "unit": "%"},
      {"measurement": "activity at 100 µM", "setting": "[1]; [5]", "result": 95.5, "unit": "%"},
      {"measurement": "minimal effective concentration", "setting": "[1]; read-out: endo.mtl.18hr POD", "result": 79.8, "unit": "µM"},
      {"measurement": "minimal effective concentration", "setting": "[1]; read-out: endo.tlps.18hr POD", "result": 100, "unit": "µM"},
      {"measurement": "minimal effective concentration", "setting": "[1]; read-out: endo.tta.18hr POD", "result": 100, "unit": "µM"},
      {"measurement": "minimal effective concentration", "setting": "[1]; read-out: endo.ttl.18hr POD", "result": 100, "unit": "µM"},
      {"measurement": "viability at 0.01 µM", "setting": "HUVECs; [6]", "result": 94.7, "unit": "%"},
      {"measurement": "activity at 0.01 µM", "setting": "HUVECs; [7]", "result": 94.8, "unit": "%"},
      {"measurement": "activity at 0.01 µM", "setting": "HUVECs; [8]", "result": 107, "unit": "%"},
      {"measurement": "activity at 0.01 µM", "setting": "HUVECs; [9]", "result": 101, "unit": "%"},
      {"measurement": "viability at 0.1 µM", "setting": "HUVECs; [6]", "result": 97.3, "unit": "%"},
      {"measurement": "activity at 0.1 µM", "setting": "HUVECs; [7]", "result": 96.5, "unit": "%"},
      {"measurement": "activity at 0.1 µM", "setting": "HUVECs; [8]", "result": 116, "unit": "%"},
      {"measurement": "activity at 0.1 µM", "setting": "HUVECs; [9]", "result": 97.7, "unit": "%"},
      {"measurement": "viability at 1 µM", "setting": "HUVECs; [6]", "result": 92.5, "unit": "%"},
      {"measurement": "activity at 1 µM", "setting": "HUVECs; [7]", "result": 92, "unit": "%"},
      {"measurement": "activity at 1 µM", "setting": "HUVECs; [8]", "result": 106, "unit": "%"},
      {"measurement": "activity at 1 µM", "setting": "HUVECs; [9]", "result": 100, "unit": "%"},
      {"measurement": "viability at 10 µM", "setting": "HUVECs; [6]", "result": 66.8, "unit": "%"},
      {"measurement": "activity at 10 µM", "setting": "HUVECs; [7]", "result": 60, "unit": "%"},
      {"measurement": "activity at 10 µM", "setting": "HUVECs; [8]", "result": 55.7, "unit": "%"},
      {"measurement": "activity at 10 µM", "setting": "HUVECs; [9]", "result": 74.2, "unit": "%"},
      {"measurement": "viability at 100 µM", "setting": "HUVECs; [6]", "result": 45, "unit": "%"},
      {"measurement": "activity at 100 µM", "setting": "HUVECs; [7]", "result": 20.7, "unit": "%"},
      {"measurement": "activity at 100 µM", "setting": "HUVECs; [8]", "result": 14.1, "unit": "%"},
      {"measurement": "activity at 100 µM", "setting": "HUVECs; [9]", "result": 49.2, "unit": "%"},
      {"measurement": "minimal effective concentration", "setting": "HUVECs; 24 hr, read-out: huvec.cyto.24hr POD", "result": 0.67, "unit": "µM"},
      {"measurement": "minimal effective concentration", "setting": "HUVECs; 24 hr, read-out: huvec.mito.24hr POD", "result": 0.57, "unit": "µM"},
      {"measurement": "minimal effective concentration", "setting": "HUVECs; 24 hr, read-out: huvec.mitoint.24hr POD", "result": 6.01, "unit": "µM"},
      {"measurement": "minimal effective concentration", "setting": "HUVECs; 24 hr, read-out: huvec.nma.24hr POD", "result": 4.97, "unit": "µM"},
      {"measurement": "viability at 0.01 µM", "setting": "HUVECs; [10]", "result": 94.7, "unit": "%"},
      {"measurement": "viability at 0.1 µM", "setting": "HUVECs; [10]", "result": 97.3, "unit": "%"},
      {"measurement": "viability at 1 µM", "setting": "HUVECs; [10]", "result": 92.5, "unit": "%"},
      {"measurement": "viability at 10 µM", "setting": "HUVECs; [10]", "result": 66.8, "unit": "%"},
      {"measurement": "viability at 100 µM", "setting": "HUVECs; [10]", "result": 45, "unit": "%"},
      {"measurement": "minimal effective concentration", "setting": "HUVECs; 24 hrs, read-out: huvec.tc.24hrs POD", "result": 0.67, "unit": "µM"}
    ]}
  ]
}
